The assay has as its system MOLM-13 cells. As to the kind of experiment: MOLM-13 cell viability assay (CellTiter-Glo). It is filed as cell-based. Conditions: Homo sapiens, MOLM-13, 72 h, 3 days, concentration of 1 μM, read-out: Antiproliferative Activity (inhibition, MOLM-13 cell viability). How it is done: MOLM-13 cells were cultured in RPMI 1640 media supplemented with 10% fetal bovine serum, streptomycin, and penicillin. The cells were plated in white walled 96-well plates at 2,500 cells/well. The cells were incubated in DMSO (control) or an indicated compound for 3 days at 37° C. and 5% CO2. Following the incubation period, 100 μL of CELLTITER-GLO® (CTG) reagent was added to each well. Following a 10 minutes incubation with shaking, luminescence was measured using an ENVISION® Multimode plate reader.

Some results are limits rather than exact numbers.

Regarding `Cc1ccc(C(=O)C(=O)NCc2scc3c2CN(C2CCC(=O)NC2=O)C3=O)cc1Cl` (stereo not shown) [Compound I-6, 2-(3-chloro-4-methylphenyl)-N-((5-(2,6-dioxopiperidin-3-yl)-4-oxo-5,6-dihydro-4H-thieno[3,4-c]pyrrol-1-yl)methyl)-2-oxoacetamide], the cytotoxicity at 1 µM was 25 to 50%.
In the case of `CN(C)c1ccc(C(=O)C(=O)NCc2scc3c2CN(C2CCC(=O)NC2=O)C3=O)cc1` (stereo not shown) [Compound I-7, 2-(4-dimethylaminophenyl)-N-((5-(2,6-dioxopiperidin-3-yl)-4-oxo-5,6-dihydro-4H-thieno[3,4-c]pyrrol-1-yl)methyl)-2-oxoacetamide], the cytotoxicity at 1 µM is under 25%.
The same measure for `O=C1CCC(N2Cc3c(csc3CNC(=O)C(=O)c3ccccc3)C2=O)C(=O)N1` (stereo not shown) [Compound I-8, 2-phenyl-N-((5-(2,6-dioxopiperidin-3-yl)-4-oxo-5,6-dihydro-4H-thieno[3,4-c]pyrrol-1-yl)methyl)-2-oxoacetamide]: under 25%; for `O=C1CCC(N2Cc3c(csc3CNC(=O)C(=O)c3cccs3)C2=O)C(=O)N1` (stereo not shown) [Compound I-9, N-((5-(2,6-dioxopiperidin-3-yl)-4-oxo-5,6-dihydro-4H-thieno[3,4-c]pyrrol-1-yl)methyl)-2-(thiophen-2-yl)-2-oxoacetamide]: under 25%.
In the case of `CC(C)(C)c1ccc(C(=O)C(=O)NCc2ccc3c(c2)CN([C@H]2CCCC(=O)NC2=O)C3=O)cc1` [Compound I-10, (S)-2-(4-(tert-butyl)phenyl)-N-((2-(2,7-dioxoazepan-3-yl)-1-oxoisoindolin-5-yl)methyl)-2-oxoacetamide], the cytotoxicity at 1 µM was over 80%.
With `COc1ccc(C(=O)C(=O)NCc2scc3c2CN(C2CCC(=O)NC2=O)C3=O)cc1` (stereo not shown) [Compound I-11, 2-(4-methoxyphenyl)-N-((5-(2,6-dioxopiperidin-3-yl)-4-oxo-5,6-dihydro-4H-thieno[3,4-c]pyrrol-1-yl)methyl)-2-oxoacetamide], the cytotoxicity at 1 µM was under 25%.
Then `O=C1CCC(N2Cc3c(csc3CNC(=O)C(=O)c3ccc(C4CC4)cc3)C2=O)C(=O)N1` (stereo not shown) [Compound I-12, 2-(4-cyclopropylphenyl)-N-((5-(2,6-dioxopiperidin-3-yl)-4-oxo-5,6-dihydro-4H-thieno[3,4-c]pyrrol-1-yl)methyl)-2-oxoacetamide], with under 25%; and `CC(C)(C)c1ccc(C(=O)C(=O)NCc2scc3c2C(=O)N(C2CCC(=O)NC2=O)C3=O)cc1` (stereo not shown) [Compound I-13, 2-(4-(tert-butyl)phenyl)-N-((5-(2,6-dioxopiperidin-3-yl)-4,6-dioxo-5,6-dihydro-4H-thieno[3,4-c]pyrrol-1-yl)methyl)-2-oxoacetamide], with under 25%.
Turning to `CC(C)c1ccc(C(=O)C(=O)NCc2scc3c2CN(C2CCC(=O)NC2=O)C3=O)cc1` (stereo not shown) [Compound I-14, 2-(4-isopropylphenyl)-N-((5-(2,6-dioxopiperidin-3-yl)-4-oxo-5,6-dihydro-4H-thieno[3,4-c]pyrrol-1-yl)methyl)-2-oxoacetamide], the cytotoxicity at 1 µM lay in the range of 25 to 50%.
Then `CCC(C)c1ccc(C(=O)C(=O)NCc2scc3c2CN(C2CCC(=O)NC2=O)C3=O)cc1` (stereo not shown) [Compound I-15, 2-(4-(sec-butyl)phenyl)-N-((5-(2,6-dioxopiperidin-3-yl)-4-oxo-5,6-dihydro-4H-thieno[3,4-c]pyrrol-1-yl)methyl)-2-oxoacetamide], with 25 to 50%; and `O=C1CCC(N2Cc3c(csc3CNC(=O)C(=O)c3ccc(O)cc3)C2=O)C(=O)N1` (stereo not shown) [Compound I-16, 2-(4-hydroxyphenyl)-N-((5-(2,6-dioxopiperidin-3-yl)-4-oxo-5,6-dihydro-4H-thieno[3,4-c]pyrrol-1-yl)methyl)-2-oxoacetamide], with under 25%; and `Cc1ccc(C(=O)C(=O)NCc2scc3c2CN(C2CCC(=O)NC2=O)C3=O)cc1` (stereo not shown) [Compound I-17, 2-(4-methylphenyl)-N-((5-(2,6-dioxopiperidin-3-yl)-4-oxo-5,6-dihydro-4H-thieno[3,4-c]pyrrol-1-yl)methyl)-2-oxoacetamide], with under 25%.
The same measure for `O=C1CCC(N2Cc3c(csc3CNC(=O)C(=O)c3ccc(Cl)cc3)C2=O)C(=O)N1` (stereo not shown) [Compound I-18, 2-(4-chlorophenyl)-N-((5-(2,6-dioxopiperidin-3-yl)-4-oxo-5,6-dihydro-4H-thieno[3,4-c]pyrrol-1-yl)methyl)-2-oxoacetamide]: under 25%; for `CC(C)(C)c1cccc(C(=O)C(=O)NCc2scc3c2CN(C2CCC(=O)NC2=O)C3=O)c1` (stereo not shown) [Compound I-19, 2-(3-tert-butylphenyl)-N-((5-(2,6-dioxopiperidin-3-yl)-4-oxo-5,6-dihydro-4H-thieno[3,4-c]pyrrol-1-yl)methyl)-2-oxoacetamide]: over 80%.
Consider `CC(=O)Nc1ccc(C(=O)C(=O)NCc2scc3c2CN(C2CCC(=O)NC2=O)C3=O)cc1` (stereo not shown) [Compound I-20, 2-(4-acetamidophenyl)-N-((5-(2,6-dioxopiperidin-3-yl)-4-oxo-5,6-dihydro-4H-thieno[3,4-c]pyrrol-1-yl)methyl)-2-oxoacetamide], for which the cytotoxicity at 1 µM is under 25%.
On to `O=C1CCC(N2Cc3c(csc3CNC(=O)C(=O)c3ccc(-c4ccccc4)cc3)C2=O)C(=O)N1` (stereo not shown) [Compound I-21, 2-([1,1′-biphenyl]-4-yl)-N-((5-(2,6-dioxopiperidin-3-yl)-4-oxo-5,6-dihydro-4H-thieno[3,4-c]pyrrol-1-yl)methyl)-2-oxoacetamide], for which the cytotoxicity at 1 µM lay in the range of 25 to 50%.
As for `O=C1CCC(N2Cc3c(csc3CNC(=O)C(=O)c3ccc(F)cc3)C2=O)C(=O)N1` (stereo not shown) [Compound I-22, 2-(4-fluorophenyl)-N-((5-(2,6-dioxopiperidin-3-yl)-4-oxo-5,6-dihydro-4H-thieno[3,4-c]pyrrol-1-yl)methyl)-2-oxoacetamide], the cytotoxicity at 1 µM was under 25%.
Take `O=C1CCC(N2Cc3c(csc3CNC(=O)C(=O)c3ccc(C(F)(F)F)cc3)C2=O)C(=O)N1` (stereo not shown) [Compound I-23, 2-(4-trifluoromethylphenyl)-N-((5-(2,6-dioxopiperidin-3-yl)-4-oxo-5,6-dihydro-4H-thieno[3,4-c]pyrrol-1-yl)methyl)-2-oxoacetamide]: the cytotoxicity at 1 µM was under 25%.
In the case of `O=C1CCC(N2Cc3c(csc3CNC(=O)C(=O)c3ccc(Cl)c(Cl)c3)C2=O)C(=O)N1` (stereo not shown) [Compound I-24, 2-(3,4-dichlorophenyl)-N-((5-(2,6-dioxopiperidin-3-yl)-4-oxo-5,6-dihydro-4H-thieno[3,4-c]pyrrol-1-yl)methyl)-2-oxoacetamide], the cytotoxicity at 1 µM was in the range of 25 to 50%.
With `CN(C)Cc1ccc(C(=O)C(=O)NCc2scc3c2CN(C2CCC(=O)NC2=O)C3=O)cc1` (stereo not shown) [Compound I-25, 2-(4-((dimethylamino)methyl)phenyl)-N-((5-(2,6-dioxopiperidin-3-yl)-4-oxo-5,6-dihydro-4H-thieno[3,4-c]pyrrol-1-yl)methyl)-2-oxoacetamide], the cytotoxicity at 1 µM was under 25%.
As for `O=C1CCC(N2Cc3c(csc3CNC(=O)C(=O)c3ccc(CN4CCOCC4)cc3)C2=O)C(=O)N1` (stereo not shown) [Compound I-26, 2-(4-(morpholinomethyl)phenyl)-N-((5-(2,6-dioxopiperidin-3-yl)-4-oxo-5,6-dihydro-4H-thieno[3,4-c]pyrrol-1-yl)methyl)-2-oxoacetamide], the cytotoxicity at 1 µM was under 25%.
Turning to `Cc1cc(C(=O)C(=O)NCc2scc3c2CN(C2CCC(=O)NC2=O)C3=O)ccc1C(C)(C)C` (stereo not shown) [Compound I-27, 2-(3-methyl-4-(tert-butyl)phenyl)-N-((5-(2,6-dioxopiperidin-3-yl)-4-oxo-5,6-dihydro-4H-thieno[3,4-c]pyrrol-1-yl)methyl)-2-oxoacetamide], the cytotoxicity at 1 µM was over 80%.
Turning to `CC(C)(C)c1ccc(C(=O)C(=O)NCc2cccc3c2CN(C2CCC(=O)NC2=O)C3=O)cc1` (stereo not shown) [Compound I-28, 2-(4-(tert-butyl)phenyl)-N-((2-(2,6-dioxopiperidin-3-yl)-1-oxoisoindolin-4-yl)methyl)-2-oxoacetamide], the cytotoxicity at 1 µM is over 80%.
On to `CC(C)(C)c1ccc(C(=O)C(=O)NCc2cc(F)cc3c2CN(C2CCC(=O)NC2=O)C3=O)cc1` (stereo not shown) [Compound I-29, 2-(4-(tert-butyl)phenyl)-N-((2-(2,6-dioxopiperidin-3-yl)-6-fluoro-1-oxoisoindolin-4-yl)methyl)-2-oxoacetamide], for which the cytotoxicity at 1 µM is over 80%.
Then `O=C1CCC(N2Cc3c(CNC(=O)C(=O)c4ccc(C5(C(F)(F)F)CC5)cc4)cccc3C2=O)C(=O)N1` (stereo not shown) [Compound I-30, N-((2-(2,6-dioxopiperidin-3-yl)-1-oxoisoindolin-4-yl)methyl)-2-oxo-2-(4-(1-(trifluoromethyl)cyclopropyl)phenyl)acetamide], with over 80%.
On to `CN1CCC(c2ccc(C(=O)C(=O)NCc3scc4c3CN(C3CCC(=O)NC3=O)C4=O)cc2)CC1` (stereo not shown) [Compound I-31, N-((5-(2,6-dioxopiperidin-3-yl)-4-oxo-5,6-dihydro-4H-thieno[3,4-c]pyrrol-1-yl)methyl)-2-(4-(1-methylpiperidin-4-yl)phenyl)-2-oxoacetamide], for which the cytotoxicity at 1 µM is under 25%.
Consider `CC(C)(C)c1ccc(C(=O)C(=O)NCc2ccc3c(c2)C(=O)N(C2CCC(=O)NC2=O)C3=O)cc1` (stereo not shown) [Compound I-32, 2-(4-(tert-butyl)phenyl)-N-((2-(2,6-dioxopiperidin-3-yl)-1,3-dioxoisoindolin-5-yl)methyl)-2-oxoacetamide], for which the cytotoxicity at 1 µM was over 80%.
The same measure for `CC(C)(C)c1cccc(C(=O)C(=O)NCc2ccc3c(c2)CN(C2CCC(=O)NC2=O)C3=O)c1` (stereo not shown) [Compound I-33, 2-(3-(tert-butyl)phenyl)-N-((2-(2,6-dioxopiperidin-3-yl)-1-oxoisoindolin-5-yl)methyl)-2-oxoacetamide]: over 80%.
